Molecular target: Tubulin (Homo sapiens) (UniProt P68371+Q9H4B7+P0DPH7+P68366+Q13509+Q71U36+P04350+Q3ZCM7+P07437+P68363+Q9BQE3+Q6PEY2+Q13885+Q9BVA1+Q9BUF5)
Assay: Binding affinity to microtubules, activity expressed as ID50 of compound/ID50 of paclitaxel
Assay type: protein-complex assay

SMILES | ID50 ratio
CC(=O)O[C@H]1C(=O)[C@@]2(C)[C@H]([C@H](OC(=O)c3ccccc3)[C@]3(O)C[C@H](OC(=O)[C@H](O)[C@@H](NC(=O)c4ccccc4)c4ccc(Cl)c(Cl)c4)C(C)=C1C3(C)C)[C@]1(OC(C)=O)CO[C@@H]1C[C@@H]2O | 7.1
CC(=O)O[C@H]1C(=O)[C@@]2(C)[C@H]([C@H](OC(=O)c3ccccc3)[C@]3(O)C[C@H](OC(=O)C[C@H](NC(=O)c4ccccc4)c4ccccc4)C(C)=C1C3(C)C)[C@]1(OC(C)=O)CO[C@@H]1C[C@@H]2O | 21.2
CC(=O)O[C@H]1C(=O)[C@@]2(C)[C@H]([C@H](OC(=O)c3ccccc3)[C@]3(O)C[C@H](OC(=O)[C@H](O)[C@@H](NC(=O)c4ccccc4)c4ccoc4)C(C)=C1C3(C)C)[C@]1(OC(C)=O)CO[C@@H]1C[C@@H]2O | 0.9
CC(=O)O[C@H]1C(=O)[C@@]2(C)[C@H]([C@H](OC(=O)c3ccccc3)[C@]3(O)C[C@H](OC(=O)[C@H](O)[C@@H](NC(=O)c4ccc([N+](=O)[O-])cc4)c4ccccc4)C(C)=C1C3(C)C)[C@]1(OC(C)=O)CO[C@@H]1C[C@@H]2O | 2
C/C=C(\C)C(=O)N[C@@H](c1ccccc1)[C@@H](O)C(=O)O[C@H]1C[C@@]2(O)[C@@H](OC(=O)c3ccccc3)[C@@H]3[C@]4(OC(C)=O)CO[C@@H]4C[C@H](OC(=O)[C@H](O)[C@@H](O)[C@H](O)CO)[C@@]3(C)C(=O)[C@H](OC(C)=O)C(=C1C)C2(C)C | 0.5
CC(=O)O[C@H]1C(=O)[C@@]2(C)[C@H]([C@H](OC(=O)c3ccccc3)[C@]3(O)C[C@H](OC(=O)[C@@H](O)Cc4ccccc4)C(C)=C1C3(C)C)[C@]1(OC(C)=O)CO[C@@H]1C[C@@H]2O | 15.7
CC(=O)O[C@H]1C(=O)[C@@]2(C)[C@H]([C@H](OC(=O)c3ccccc3)[C@]3(O)C[C@H](OC(=O)[C@H](O)[C@@H](NC(=O)c4ccc(Cl)c(Cl)c4)c4ccccc4)C(C)=C1C3(C)C)[C@]1(OC(C)=O)CO[C@@H]1C[C@@H]2O | 2.1
CC(=O)O[C@@]12CO[C@@H]1C[C@H](O)[C@@]1(C)C(=O)[C@H](O)C3=C(C)[C@@H](OC(=O)[C@H](O)[C@@H](NC(=O)OC(C)(C)C)c4ccccc4)C[C@@](O)([C@@H](OC(=O)c4ccccc4)[C@H]21)C3(C)C (stereo in doubt; 40) | 0.5
CC(=O)O[C@@]12CO[C@@H]1C[C@H](O)[C@@]1(C)C(=O)CC3=C(C)[C@@H](OC(=O)[C@H](O)[C@@H](NC(=O)c4ccccc4)c4ccccc4)C[C@@](O)([C@@H](OC(=O)c4ccccc4)[C@H]21)C3(C)C (stereo in doubt; 19) | 106
CC(=O)O[C@@]12CO[C@@H]1C[C@H](O)[C@@]1(C)C(=O)CC3=C(C)[C@@H](OC(=O)[C@H](O)[C@@H](NC(=O)c4ccccc4)c4ccccc4)C[C@@](O)([C@@H](OC(=O)c4ccccc4)[C@H]21)C3(C)C (stereo in doubt; 17) | 143
CC(=O)O[C@H]1C(=O)[C@@]2(C)[C@H]([C@H](OC(=O)c3ccccc3)[C@]3(O)C[C@H](OC(=O)[C@H](O)[C@@H](NC(=O)OCc4ccccc4)c4ccccc4)C(C)=C1C3(C)C)[C@]1(OC(C)=O)CO[C@@H]1C[C@@H]2O | 3.3
CC(=O)O[C@H]1C(=O)[C@@]2(C)[C@H]([C@H](OC(=O)c3ccccc3)[C@]3(O)C[C@H](OC(=O)[C@@H](O)[C@H](NC(=O)c4ccccc4)c4ccccc4)C(C)=C1C3(C)C)[C@]1(OC(C)=O)CO[C@@H]1C[C@@H]2O | 4.5
CC(=O)O[C@H]1C(=O)[C@@]2(C)[C@H]([C@H](OC(=O)c3ccccc3)[C@]3(O)C[C@H](OC(=O)[C@H](O)[C@@H](NC(=O)c4ccc(F)cc4)c4ccccc4)C(C)=C1C3(C)C)[C@]1(OC(C)=O)CO[C@@H]1C[C@@H]2O | 1.2
CC(=O)O[C@H]1C(=O)[C@]2(C)[C@@H](OC(=O)c3c(F)c(F)c(N=[N+]=[N-])c(F)c3F)C[C@H]3OC[C@@]3(OC(C)=O)[C@H]2[C@H](OC(=O)c2ccccc2)[C@]2(O)C[C@H](OC(=O)[C@H](O)[C@@H](NC(=O)c3ccccc3)c3ccccc3)C(C)=C1C2(C)C | > 22.4
CC(=O)O[C@H]1C(=O)[C@@]2(C)[C@H]([C@H](OC(=O)c3ccccc3)[C@]3(O)C[C@H](OC(=O)[C@H](O)[C@@H](NC(=O)c4c(F)c(F)c(N=[N+]=[N-])c(F)c4F)c4ccccc4)C(C)=C1C3(C)C)[C@]1(OC(C)=O)CO[C@@H]1C[C@@H]2O | 4.6
CCCCCC(=O)N[C@@H](c1ccccc1)[C@@H](O)C(=O)O[C@H]1C[C@@]2(O)[C@@H](OC(=O)c3ccccc3)[C@@H]3[C@]4(OC(C)=O)CO[C@@H]4C[C@H](O)[C@@]3(C)C(=O)[C@H](OC(C)=O)C(=C1C)C2(C)C | 0.4
CC(=O)O[C@H]1C(=O)[C@]2(C)[C@@H](OC(=O)c3ccc(N=[N+]=[N-])cc3)C[C@H]3OC[C@@]3(OC(C)=O)[C@H]2[C@H](OC(=O)c2ccccc2)[C@]2(O)C[C@H](OC(=O)[C@H](O)[C@@H](NC(=O)c3ccccc3)c3ccccc3)C(C)=C1C2(C)C | 21.4
C/C=C(\C)C(=O)N[C@@H](c1ccccc1)[C@@H](O)C(=O)O[C@H]1C[C@@]2(O)[C@@H](OC(=O)c3ccccc3)[C@@H]3[C@]4(OC(C)=O)CO[C@@H]4C[C@H](O)[C@@]3(C)C(=O)[C@H](OC(C)=O)C(=C1C)C2(C)C | 1.5
CC(=O)O[C@H]1C(=O)[C@@]2(C)[C@H]([C@H](OC(=O)c3ccccc3)[C@]3(O)C[C@H](OC(=O)[C@H](O)[C@@H](NC(=O)c4cccc(N(C)C)c4)c4ccccc4)C(C)=C1C3(C)C)[C@]1(OC(C)=O)CO[C@@H]1C[C@@H]2O | 1.4
C/C=C(\C)C(=O)N[C@@H](c1ccccc1)[C@@H](O)C(=O)O[C@H]1C[C@@]2(O)[C@@H](OC(=O)c3ccccc3)[C@@H]3[C@]4(OC(C)=O)CO[C@@H]4C[C@H](O)[C@@]3(C)C(=O)[C@H](O)C(=C1C)C2(C)C | 5
CC(=O)O[C@H]1C(=O)[C@@]2(C)[C@H]([C@H](OC(=O)c3ccccc3)[C@]3(O)C[C@H](OC(=O)[C@H](O)[C@@H](NC(=O)c4ccco4)c4ccccc4)C(C)=C1C3(C)C)[C@]1(OC(C)=O)CO[C@@H]1C[C@@H]2O | 0.8
CC(=O)O[C@H]1C(=O)[C@@]2(C)[C@H]([C@H](OC(=O)c3ccccc3)[C@]3(O)C[C@H](OC(=O)[C@H](O)[C@@H](NC(=O)c4ccccc4)c4cccnc4)C(C)=C1C3(C)C)[C@]1(OC(C)=O)CO[C@@H]1C[C@@H]2O | 0.5
CC(=O)O[C@@]12CO[C@@H]1C[C@H](O)[C@@]1(C)C(=O)[C@H](O)C3=C(C)[C@@H](OC(=O)C[C@@H](O)[C@@H](NC(=O)OC(C)(C)C)c4ccccc4)C[C@@](O)([C@@H](OC(=O)c4ccccc4)[C@H]21)C3(C)C | > 27

Other lines, results leading:

ID50 ratio | SMILES
5.6 | CC(=O)O[C@H]1C(=O)[C@@]2(C)[C@H]([C@H](OC(=O)c3ccccc3)[C@]3(O)C[C@H](OC(=O)[C@H](O)CNC(=O)c4ccccc4)C(C)=C1C3(C)C)[C@]1(OC(C)=O)CO[C@@H]1C[C@@H]2O
3.4 | CC(=O)O[C@H]1C(=O)[C@]2(C)[C@@H](OC(=O)c3ccc(C(=[N+]=[N-])C(F)(F)F)cc3)C[C@H]3OC[C@@]3(OC(C)=O)[C@H]2[C@H](OC(=O)c2ccccc2)[C@]2(O)C[C@H](OC(=O)[C@H](O)[C@@H](NC(=O)c3ccccc3)c3ccccc3)C(C)=C1C2(C)C
2.3 | CC(=O)O[C@@]12CO[C@@H]1C[C@H](O)[C@@]1(C)C(=O)[C@H](O)C3=C(C)[C@@H](OC(=O)C[C@H](NC(=O)OC(C)(C)C)c4ccccc4)C[C@@](O)([C@@H](OC(=O)c4ccccc4)[C@H]21)C3(C)C
1.2 | CC(=O)O[C@H]1C(=O)[C@@]2(C)[C@H]([C@H](OC(=O)c3ccccc3)[C@]3(O)C[C@H](OC(=O)[C@H](O)[C@@H](NC(=O)CC(C)C)c4ccccc4)C(C)=C1C3(C)C)[C@]1(OC(C)=O)CO[C@@H]1C[C@@H]2O
1.9 | CC(=O)O[C@H]1C(=O)[C@@]2(C)[C@H]([C@H](OC(=O)c3ccccc3)[C@]3(O)C[C@H](OC(=O)[C@H](O)[C@@H](NC(=O)c4ccccc4C)c4ccccc4)C(C)=C1C3(C)C)[C@]1(OC(C)=O)CO[C@@H]1C[C@@H]2O
3.5 | CC(=O)O[C@H]1C(=O)[C@@]2(C)[C@H]([C@H](OC(=O)c3ccccc3)[C@]3(O)C[C@H](OC(=O)[C@H](O)[C@@H](NC(=O)/C(C)=N/O)c4ccccc4)C(C)=C1C3(C)C)[C@]1(OC(C)=O)CO[C@@H]1C[C@@H]2O
0.4 | CC(=O)O[C@H]1C(=O)[C@@]2(C)[C@H]([C@H](OC(=O)c3ccccc3)[C@]3(O)C[C@H](OC(=O)[C@H](O)[C@@H](NC(=O)c4ccoc4)c4ccccc4)C(C)=C1C3(C)C)[C@]1(OC(C)=O)CO[C@@H]1C[C@@H]2O
14.1 | CC(=O)O[C@H]1C(=O)[C@@]2(C)[C@H]([C@H](OC(=O)c3ccccc3)[C@]3(O)C[C@H](OC(=O)[C@H](O)[C@@H](NC(=O)/C(C)=N/NC(=O)OC(C)(C)C)c4ccccc4)C(C)=C1C3(C)C)[C@]1(OC(C)=O)CO[C@@H]1C[C@@H]2O
2.6 | CC(=O)O[C@H]1C(=O)[C@@]2(C)[C@H]([C@H](OC(=O)c3ccccc3)[C@]3(O)C[C@H](OC(=O)[C@H](O)[C@@H](NC(=O)C(C)(C)C)c4ccccc4)C(C)=C1C3(C)C)[C@]1(OC(C)=O)CO[C@@H]1C[C@@H]2O
2 | CC(=O)O[C@H]1C(=O)[C@@]2(C)[C@H]([C@H](OC(=O)c3ccccc3)[C@]3(O)C[C@H](OC(=O)[C@H](O)[C@@H](NC(=O)c4ccc(N=[N+]=[N-])cc4)c4ccccc4)C(C)=C1C3(C)C)[C@]1(OC(C)=O)CO[C@@H]1C[C@@H]2O
0.9 | CC(=O)O[C@H]1C(=O)[C@@]2(C)[C@H]([C@H](OC(=O)c3ccccc3)[C@]3(O)C[C@H](OC(=O)[C@H](O)[C@@H](NC(=O)c4ccccc4)c4ccco4)C(C)=C1C3(C)C)[C@]1(OC(C)=O)CO[C@@H]1C[C@@H]2O
52 | CCC(=O)O[C@H]1C[C@@]2(O)[C@@H](OC(=O)c3ccccc3)[C@@H]3[C@]4(OC(C)=O)CO[C@@H]4C[C@H](O)[C@@]3(C)C(=O)[C@H](OC(C)=O)C(=C1C)C2(C)C
13.2 | CC(=O)O[C@H]1C(=O)[C@@]2(C)[C@H]([C@H](OC(=O)c3ccccc3)[C@]3(O)C[C@H](OC(=O)[C@H](O)Cc4ccccc4)C(C)=C1C3(C)C)[C@]1(OC(C)=O)CO[C@@H]1C[C@@H]2O
0.7 | CC(=O)O[C@H]1C(=O)[C@@]2(C)[C@H]([C@H](OC(=O)c3ccccc3)[C@]3(O)C[C@H](OC(=O)[C@H](O)[C@@H](NC(=O)c4ccccc4)c4ccccn4)C(C)=C1C3(C)C)[C@]1(OC(C)=O)CO[C@@H]1C[C@@H]2O

Reference: ChEMBL document CHEMBL1127973, “A comparative molecular field analysis derived model of the binding of taxol analogues to microtubules” (Bioorg Med Chem Lett, 1994)
